This note sets out measurements from ChEMBL document CHEMBL5715945 (Cancer Biol Ther, 2010).

For data set [1], the target named is Protein kinase C alpha type (Homo sapiens) (UniProt P17252). Put plainly: Inhibition of PKCa (unknown origin) at 0.1 uM relative to control; values are per cent of control.
Data set [2] has as its system 4T1. The experiment in a line: Antitumor activity against mouse 4T1 cells harbouring mCherry red fluorescent protein implanted in BALB/c mouse assessed as increase in cleaved caspase-3 in tumor at 30 to 100 mg/kg, sc bid measured after 5 days by Hoechst staining based microscopic analysis. It is filed as functional, organism-based. Particulars: dose 30-100 mg/kg, time 5.0 day.

Data set [3] deals with Tyrosine-protein kinase ZAP-70 (Homo sapiens) (UniProt P43403). The experiment in a line: Inhibition of ZAP-70 (unknown origin) at 0.1 uM relative to control; values are per cent of control.
Sequence of Tyrosine-protein kinase ZAP-70 (Homo sapiens) (P43403 whole entry): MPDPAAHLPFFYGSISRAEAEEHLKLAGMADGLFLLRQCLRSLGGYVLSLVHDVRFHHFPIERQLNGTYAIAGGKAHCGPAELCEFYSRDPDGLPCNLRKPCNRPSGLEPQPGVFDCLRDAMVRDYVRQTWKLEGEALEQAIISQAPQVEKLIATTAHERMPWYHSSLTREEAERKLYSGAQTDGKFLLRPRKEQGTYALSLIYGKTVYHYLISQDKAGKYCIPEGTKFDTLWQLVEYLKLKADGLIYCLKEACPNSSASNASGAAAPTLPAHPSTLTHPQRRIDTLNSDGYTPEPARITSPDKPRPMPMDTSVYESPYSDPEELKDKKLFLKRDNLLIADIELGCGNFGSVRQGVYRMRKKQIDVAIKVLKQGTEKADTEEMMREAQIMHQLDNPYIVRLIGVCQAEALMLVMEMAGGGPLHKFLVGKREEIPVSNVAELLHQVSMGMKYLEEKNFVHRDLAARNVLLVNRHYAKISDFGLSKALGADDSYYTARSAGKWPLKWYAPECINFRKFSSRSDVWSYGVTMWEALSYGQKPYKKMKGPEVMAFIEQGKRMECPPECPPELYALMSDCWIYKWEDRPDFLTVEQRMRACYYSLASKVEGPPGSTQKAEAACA
The subject of data set [4] is 4T1. Put plainly: Effect on Src phosphorylation at Y416 residue in mouse 4T1 cultured as 3D spheroids at 0.1 to 1 uM incubated for 24 hrs by immunoblotting analysis. It is filed as functional, cell-based. Particulars: dose 0.1-1 µM.
Data set [5] has as its target ALK tyrosine kinase receptor (Homo sapiens) (UniProt Q9UM73). Put plainly: Inhibition of ALK (unknown origin) at 1 uM relative to control; values are per cent of control.
Data set [6] has as its system 4T1. The experiment in a line: Induction of apoptosis in mouse 4T1 adherent cells assessed as increase in cleaved caspase 3 expression at 0.4 uM incubated for 24 hrs by immunoblotting analysis. It is filed as functional, cell-based. (A western blot detects proteins with antibodies after separation by electrophoresis.)
In data set [7] the target is Tyrosine-protein kinase ABL1 (Homo sapiens) (UniProt P00519). The experiment in a line: Inhibition of Abl (unknown origin) at 0.1 uM relative to control; values are per cent of control.
Data set [8] relates to 4T1. Put plainly: Induction of cell cycle arrest in mouse 4T1 adherent cells assessed as accumulation at S phase at 1 uM measured after 72 hrs by PI staining based flow cytometry analysis (reference value: 15.3%). It is filed as functional. In general terms: In flow cytometry, cells or beads pass a laser one at a time.
Data set [9] concerns the target Vascular endothelial growth factor receptor 2 (Homo sapiens) (UniProt P35968). Put plainly: Inhibition of KDR (unknown origin) at 1 uM relative to control; values are per cent of control.
A further data set concerns ID8. Put plainly: Antitumor activity against mouse ID8 suspended cells assessed as reduction in cell viability at 0.1 to 1 uM measured after 15 days by trypan blue staining based analysis. Particulars: dose 0.1-1 µM, time 15.0 day. It is filed as functional.
Data set [10] concerns the target Fibroblast growth factor receptor 1 (Homo sapiens) (UniProt P11362). The experiment in a line: Inhibition of FGFR1 (unknown origin) at 0.1 uM relative to control; values are per cent of control.
Data set [11] in a line: Toxicity in C57BL6 mouse implanted with mouse ID8 cells assessed as change in body weight at 0.5 mg/ml administered as solution in 5% sucrose measured after 30 days. It is filed as cell-based. The following applies: id8, 720 h, time 30 day.
In data set [12] the test system is 4T1. Put plainly: Effect on p130Cas phosphorylation at Tyr249 residue in mouse 4T1 cells harbouring mCherry red fluorescent protein at 0.1 to 1 uM incubated for 1 hr by immunoblotting analysis. It is filed as functional, cell-based. The following applies: dose 0.1-1 µM.
For data set [13], the system named is 4T1. The experiment in a line: Induction of apoptosis in mouse 4T1 suspended cells at 0.1 to 0.4 uM incubated for 24 hrs by annexin V staining based flow cytometry analysis. It is filed as functional. Particulars: dose 0.1-0.4 µM.
Data set [14] has as its system 4T1. The experiment in a line: Effect on p130Cas phosphorylation at Tyr410 residue in mouse 4T1 cultured as 3D spheroids at 0.1 uM incubated for 24 hrs by immunoblotting analysis. It is filed as functional, cell-based.
The target in data set [15] is Insulin-like growth factor 1 receptor (Homo sapiens) (UniProt P08069). Put plainly: Inhibition of IGF-1R (unknown origin) at 1 uM relative to control; values are per cent of control.
Data set [16] deals with Activated CDC42 kinase 1 (Homo sapiens) (UniProt Q07912). The experiment in a line: Inhibition of ACK1 (unknown origin) at 1 uM relative to control; values are per cent of control.
Sequence of Activated CDC42 kinase 1 (Homo sapiens) (Q07912 whole entry, looked up): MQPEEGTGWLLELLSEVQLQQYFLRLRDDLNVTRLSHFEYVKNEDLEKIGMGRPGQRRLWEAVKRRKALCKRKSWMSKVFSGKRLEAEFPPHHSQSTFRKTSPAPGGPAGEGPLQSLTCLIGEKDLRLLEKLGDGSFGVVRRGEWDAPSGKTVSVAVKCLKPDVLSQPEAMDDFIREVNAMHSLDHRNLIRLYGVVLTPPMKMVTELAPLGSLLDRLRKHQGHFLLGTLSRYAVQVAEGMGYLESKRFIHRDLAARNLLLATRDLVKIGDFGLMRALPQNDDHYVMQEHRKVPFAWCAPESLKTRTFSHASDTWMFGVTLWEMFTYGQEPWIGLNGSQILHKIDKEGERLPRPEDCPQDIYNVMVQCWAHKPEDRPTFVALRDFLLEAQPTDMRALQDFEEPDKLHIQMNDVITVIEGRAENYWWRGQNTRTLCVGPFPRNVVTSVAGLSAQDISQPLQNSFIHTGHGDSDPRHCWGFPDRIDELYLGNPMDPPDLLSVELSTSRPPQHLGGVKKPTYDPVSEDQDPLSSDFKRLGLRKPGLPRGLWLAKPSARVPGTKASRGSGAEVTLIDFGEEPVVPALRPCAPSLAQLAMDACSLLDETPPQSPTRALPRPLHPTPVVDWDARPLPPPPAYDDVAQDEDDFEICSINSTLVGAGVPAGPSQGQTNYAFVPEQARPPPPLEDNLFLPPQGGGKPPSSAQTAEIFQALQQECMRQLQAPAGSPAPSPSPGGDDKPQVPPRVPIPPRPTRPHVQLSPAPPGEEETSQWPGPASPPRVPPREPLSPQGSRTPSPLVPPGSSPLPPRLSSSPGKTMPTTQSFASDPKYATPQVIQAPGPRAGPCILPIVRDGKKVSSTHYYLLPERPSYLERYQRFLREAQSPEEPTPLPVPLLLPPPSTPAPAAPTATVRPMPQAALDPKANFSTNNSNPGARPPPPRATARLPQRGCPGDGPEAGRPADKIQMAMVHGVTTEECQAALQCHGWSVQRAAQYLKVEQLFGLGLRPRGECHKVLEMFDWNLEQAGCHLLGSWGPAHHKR
Data set [17] addresses Tyrosine-protein kinase JAK2 (Homo sapiens) (UniProt O60674). Put plainly: Inhibition of JAK2 (unknown origin) at 0.1 uM relative to control; values are per cent of control.

The structures appear in SMILES notation. Calls of active or inactive are those of the source. The rule behind the calls is not given here.

Sequence of ALK tyrosine kinase receptor (Homo sapiens) (Q9UM73 19-1620 limits assumed): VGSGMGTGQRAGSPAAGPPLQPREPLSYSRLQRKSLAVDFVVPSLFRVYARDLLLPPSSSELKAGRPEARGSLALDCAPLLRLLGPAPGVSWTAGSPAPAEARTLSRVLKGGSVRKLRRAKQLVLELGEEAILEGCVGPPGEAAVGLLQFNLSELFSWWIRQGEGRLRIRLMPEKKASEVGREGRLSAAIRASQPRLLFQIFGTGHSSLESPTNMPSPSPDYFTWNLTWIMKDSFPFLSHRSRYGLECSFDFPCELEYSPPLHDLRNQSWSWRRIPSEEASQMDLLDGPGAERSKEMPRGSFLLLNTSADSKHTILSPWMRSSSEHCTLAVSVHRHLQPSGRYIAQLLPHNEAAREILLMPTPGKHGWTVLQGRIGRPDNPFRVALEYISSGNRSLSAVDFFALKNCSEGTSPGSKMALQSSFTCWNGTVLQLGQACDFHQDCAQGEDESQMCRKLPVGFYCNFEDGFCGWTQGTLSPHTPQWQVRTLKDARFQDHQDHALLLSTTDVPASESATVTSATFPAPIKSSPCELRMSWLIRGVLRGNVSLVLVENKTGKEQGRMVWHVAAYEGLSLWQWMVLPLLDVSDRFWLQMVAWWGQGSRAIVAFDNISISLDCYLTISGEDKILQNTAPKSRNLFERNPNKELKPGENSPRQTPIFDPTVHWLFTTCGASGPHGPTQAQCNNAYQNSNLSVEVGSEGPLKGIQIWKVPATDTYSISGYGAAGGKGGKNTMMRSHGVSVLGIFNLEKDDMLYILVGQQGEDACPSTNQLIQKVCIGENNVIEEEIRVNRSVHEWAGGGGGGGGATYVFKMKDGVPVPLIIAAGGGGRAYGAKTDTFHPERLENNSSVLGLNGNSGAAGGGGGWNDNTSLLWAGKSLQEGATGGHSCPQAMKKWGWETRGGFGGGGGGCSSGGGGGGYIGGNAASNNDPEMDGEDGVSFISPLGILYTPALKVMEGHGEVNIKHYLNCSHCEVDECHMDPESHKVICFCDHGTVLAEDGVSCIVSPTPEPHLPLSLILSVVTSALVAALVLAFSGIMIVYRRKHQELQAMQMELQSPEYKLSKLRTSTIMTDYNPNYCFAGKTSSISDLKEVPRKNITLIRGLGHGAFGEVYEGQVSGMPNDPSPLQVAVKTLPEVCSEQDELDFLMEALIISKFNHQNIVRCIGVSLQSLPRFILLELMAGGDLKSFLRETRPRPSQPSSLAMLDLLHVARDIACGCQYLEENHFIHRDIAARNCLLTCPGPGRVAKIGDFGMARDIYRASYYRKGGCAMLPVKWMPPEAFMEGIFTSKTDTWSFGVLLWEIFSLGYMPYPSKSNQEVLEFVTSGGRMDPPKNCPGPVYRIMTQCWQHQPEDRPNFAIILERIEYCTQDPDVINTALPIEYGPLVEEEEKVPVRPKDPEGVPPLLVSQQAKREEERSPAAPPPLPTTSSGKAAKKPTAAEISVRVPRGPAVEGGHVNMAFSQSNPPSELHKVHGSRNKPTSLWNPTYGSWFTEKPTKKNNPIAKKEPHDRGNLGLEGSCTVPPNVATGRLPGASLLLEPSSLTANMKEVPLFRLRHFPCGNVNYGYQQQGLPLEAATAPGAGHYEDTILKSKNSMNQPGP
Sequence of Tyrosine-protein kinase JAK2 (Homo sapiens) (O60674 whole entry): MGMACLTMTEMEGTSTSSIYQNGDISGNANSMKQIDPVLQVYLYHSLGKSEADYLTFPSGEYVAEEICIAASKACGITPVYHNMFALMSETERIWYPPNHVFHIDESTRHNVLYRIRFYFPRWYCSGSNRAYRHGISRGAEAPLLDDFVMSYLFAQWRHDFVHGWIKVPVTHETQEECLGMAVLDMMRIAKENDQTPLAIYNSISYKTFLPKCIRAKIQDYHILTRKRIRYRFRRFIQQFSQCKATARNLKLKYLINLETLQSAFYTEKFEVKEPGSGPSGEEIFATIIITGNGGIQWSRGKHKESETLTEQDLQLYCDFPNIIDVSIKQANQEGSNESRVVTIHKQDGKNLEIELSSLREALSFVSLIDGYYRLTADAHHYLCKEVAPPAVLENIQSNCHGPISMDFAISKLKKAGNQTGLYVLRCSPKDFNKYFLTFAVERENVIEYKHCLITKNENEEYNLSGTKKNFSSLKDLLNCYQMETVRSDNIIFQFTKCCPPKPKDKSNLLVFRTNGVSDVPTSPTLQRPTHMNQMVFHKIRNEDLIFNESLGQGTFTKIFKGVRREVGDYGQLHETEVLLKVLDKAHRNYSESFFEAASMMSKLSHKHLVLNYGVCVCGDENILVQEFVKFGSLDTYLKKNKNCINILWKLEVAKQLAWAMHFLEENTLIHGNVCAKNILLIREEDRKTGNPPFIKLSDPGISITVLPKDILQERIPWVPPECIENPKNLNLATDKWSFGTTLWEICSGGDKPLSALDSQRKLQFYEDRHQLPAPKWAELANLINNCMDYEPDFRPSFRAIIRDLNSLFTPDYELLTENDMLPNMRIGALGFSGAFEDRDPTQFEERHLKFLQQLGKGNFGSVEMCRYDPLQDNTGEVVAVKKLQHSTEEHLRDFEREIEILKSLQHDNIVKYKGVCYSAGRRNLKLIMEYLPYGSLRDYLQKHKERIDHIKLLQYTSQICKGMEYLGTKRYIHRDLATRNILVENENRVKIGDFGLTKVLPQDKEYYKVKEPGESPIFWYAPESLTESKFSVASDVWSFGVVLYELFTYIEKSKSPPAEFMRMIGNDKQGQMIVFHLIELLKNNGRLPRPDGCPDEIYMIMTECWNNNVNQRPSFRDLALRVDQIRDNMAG

Regarding `CNC(=O)c1ccccc1Nc1cc(Nc2ccc(N3CCOCC3)cc2OC)ncc1C(F)(F)F` [VS-4718], the residual activity is 101% in data set [1]; 70% in data set [3]; 127% in data set [5]; 104% in data set [7]; 107% in data set [9]; 98% in [10]. In addition, the residual activity in data set [15] amounted to 110%; in data set [16], 16%; in [17], 116%. For the same molecule, the result with 4T1 [2], with ID8 and in the data set on 4T1 [14] was Active. For the same molecule, the result with 4T1 [4], with 4T1 [6] and with 4T1 [12] was inactive. Moreover, the values for the Activity (in the data set on 4T1 [8]; in [11]; in the data set with 4T1 [13]) were 23.8%, “Non-Toxic” and 50%, respectively.
